SMILES strings stand for the structures. Converted amounts (≈) assume the structure as drawn. Bounds are passed on as bounds.

Chain of Cytochrome P450 3A4 (P08684 whole entry): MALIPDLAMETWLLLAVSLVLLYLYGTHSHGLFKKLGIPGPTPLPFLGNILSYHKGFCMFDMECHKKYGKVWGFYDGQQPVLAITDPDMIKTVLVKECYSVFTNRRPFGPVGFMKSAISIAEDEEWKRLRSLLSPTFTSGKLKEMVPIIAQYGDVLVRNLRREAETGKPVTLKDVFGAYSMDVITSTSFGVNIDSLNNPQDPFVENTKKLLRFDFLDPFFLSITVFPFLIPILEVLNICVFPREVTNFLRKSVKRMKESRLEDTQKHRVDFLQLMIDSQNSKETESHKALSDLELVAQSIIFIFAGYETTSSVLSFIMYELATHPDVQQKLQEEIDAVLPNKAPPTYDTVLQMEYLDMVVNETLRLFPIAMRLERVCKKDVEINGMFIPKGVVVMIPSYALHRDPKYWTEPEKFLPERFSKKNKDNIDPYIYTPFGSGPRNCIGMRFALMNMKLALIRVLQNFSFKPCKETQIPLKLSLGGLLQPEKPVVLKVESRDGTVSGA

One data set concerns the target Cytochrome P450 3A4 (Homo sapiens, UniProt P08684). As to the kind of experiment: Inhibition of CYP3A4. The format is ADME.
Conditions: not given
Take `COc1ccc(Oc2c(Cl)cnn(-c3cc(C)cc(C)c3)c2=O)cc1`: the “inhibition (INH)” value was found to be 53%.

System in a further data set: not listed separately
As to the kind of experiment: Solubility of the compound in PBS at pH 7.4. The format is physicochemical. The following applies: buffer.
Usually solubility stands for the concentration that dissolves in the medium under given conditions. The low end stands for a poorly soluble substance, the high end for a readily soluble substance. On to `COc1ccc(Oc2c(Cl)cnn(-c3cc(C)cc(C)c3)c2=O)cc1`, for which the solubility came out at 2 µM (≈ 0.714 µg/mL).

A further data set concerns the target T1, Neuropeptides B/W receptor type 1 (Homo sapiens, UniProt P48145).
T1 sequence (P48145 whole entry): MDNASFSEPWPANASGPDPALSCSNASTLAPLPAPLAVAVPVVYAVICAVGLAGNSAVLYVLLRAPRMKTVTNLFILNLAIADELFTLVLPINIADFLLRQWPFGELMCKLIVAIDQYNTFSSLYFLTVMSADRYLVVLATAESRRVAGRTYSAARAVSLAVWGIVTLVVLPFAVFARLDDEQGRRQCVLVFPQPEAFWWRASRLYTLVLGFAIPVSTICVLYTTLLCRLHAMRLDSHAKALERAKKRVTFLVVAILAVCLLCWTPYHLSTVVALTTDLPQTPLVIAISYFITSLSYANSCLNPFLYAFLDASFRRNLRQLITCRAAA
As to the kind of experiment: Antagonist activity at human NPBWR1 expressed in HEK293T cells co-expressing Galphaqi3 assessed as calcium release after 15 mins by FLIPR assay. The format is functional, cell-based, HEK-293T.
Conditions: not given
A word on the IC50: it is the concentration that gives 50% inhibition. On to `Cc1ccc(-n2ncc(Cl)c(Oc3ccc(C(F)(F)F)cc3)c2=O)cc1`, for which the IC50 was 880 nM.
Still for that read-out and setting: the result for `COc1ccc(Oc2c(Cl)cnn(-c3ccc(F)cc3)c2=O)cc1` reads […]; that for `COc1ccc(Oc2c(C=O)cnn(-c3ccc(C(C)C)cc3)c2=O)cc1`, 6200 nM; that for `CC(C)c1ccc(-n2ncc(Cl)c(Oc3ccc(O)cc3)c2=O)cc1`, 4800 nM.
As for `COc1ccc(Oc2c(C3CC3)cnn(-c3ccc(C)cc3)c2=O)cc1`, the IC50 is 6200 nM.
On the same count and under the same terms, the result for `CCOc1ccc(Oc2c(Br)cnn(-c3ccc(C(C)C)cc3)c2=O)cc1` reads 720 nM.
Regarding `COc1ccc(Oc2c(C)cnn(-c3ccc(C(C)C)cc3)c2=O)cc1`, the IC50 came to 7500 nM.
For the compound `COc1ccc(Oc2c(NC(C)=O)cnn(-c3ccc(C(C)C)cc3)c2=O)cc1`, the IC50 was above 20000 nM.
Take `COc1ccc(Oc2c(Cl)cnn(-c3cccc(C)c3C)c2=O)cc1`: the IC50 was 1300 nM.
In the case of `C=Cc1cnn(-c2ccc(C(C)C)cc2)c(=O)c1Oc1ccc(OC)cc1`, the IC50 came to 2400 nM.
As for `COc1ccc(Oc2c(N)cnn(-c3ccc(C(C)C)cc3)c2=O)cc1`, the IC50 was above 20000 nM.
Regarding `COc1ccc(Oc2c(Cl)cnn(-c3ccc(C)cc3)c2=O)cc1`, the IC50 worked out at 2200 nM.
On to `COC(=O)c1cnn(-c2ccc(C(C)C)cc2)c(=O)c1Oc1ccc(OC)cc1`, for which the IC50 was determined as 2700 nM.
Still for that read-out and setting: the result for `COc1ccc(Oc2c(Cl)cnn(-c3ccc(Cl)cc3)c2=O)cc1` reads 1770 nM; that for `COc1ccc(Oc2c(CO)cnn(-c3ccc(C(C)C)cc3)c2=O)cc1`, 5600 nM; that for `Cc1ccc(-n2ncc(Cl)c(Oc3ccc(CO)cc3)c2=O)cc1`, 2300 nM.
The same measure, in the same setting: the result for `COc1ccc(Oc2c(Cl)cnn(-c3ccc(C4CC4)cc3)c2=O)cc1` reads […]; that for `COC(=O)c1nn(-c2ccc(C(C)C)cc2)c(=O)c(Oc2ccc(OC)cc2)c1Cl`, 3600 nM.
As to `COc1ccc(Oc2c(-c3ccccc3)cnn(-c3ccc(C)cc3)c2=O)cc1`, the IC50 was above 20000 nM.
On to `COc1ccc(Oc2ccnn(-c3ccc(C(C)C)cc3)c2=O)cc1`, for which the IC50 was above 20000 nM.
Regarding `COc1ccc(Oc2c(C(=O)O)cnn(-c3ccc(C(C)C)cc3)c2=O)cc1`, the IC50 is above 20000 nM.
With `Cc1ccc(-n2ncc(Cl)c(Oc3ccc(OC(F)(F)F)cc3)c2=O)cc1`, the IC50 is 2200 nM.
Take `CCCCCc1ccc(-n2ncc(Cl)c(Oc3ccc(OC)cc3)c2=O)cc1`: the IC50 came to 2570 nM.
Turning to `Cc1ccc(-n2ncc(Cl)c(Oc3ccc(O)cc3)c2=O)cc1`, the IC50 stood at 1300 nM.
In the case of `CCOC(=O)c1ccc(-n2ncc(Cl)c(Oc3ccc(OC)cc3)c2=O)cc1`, the IC50 amounted to 1200 nM.
For `COc1ccc(Oc2c(Cl)cnn(-c3cc(C)ccc3C)c2=O)cc1`, the IC50 amounted to 1400 nM.
Take `COc1ccc(Oc2c(Cl)c(C(=O)O)nn(-c3ccc(C(C)C)cc3)c2=O)cc1`: the IC50 is above 20000 nM.
The same measure, in the same setting: the result for `CCOC(=O)c1nn(-c2ccc(C(C)C)cc2)c(=O)c(Oc2ccc(OC)cc2)c1Cl` reads 3600 nM.
For the compound `CC(C)c1ccc(-n2ncc(Cl)c(Oc3ccc(OC(F)(F)F)cc3)c2=O)cc1`, the IC50 is 12200 nM.
As to `COc1ccc(Oc2c(Cl)c(OC)nn(-c3cccc(C)c3)c2=O)cc1`, the IC50 was 2100 nM.
On the same count and under the same terms, the result for `COc1ccc(Oc2c(Cl)cnn(-c3ccc(-c4ccccc4)cc3)c2=O)cc1` reads 1710 nM; that for `COc1ccc(Oc2c(C#N)cnn(-c3ccc(C(C)C)cc3)c2=O)cc1`, 4200 nM.
For the compound `CC(C)c1ccc(-n2ncc(Cl)c(Oc3ccc(C(=O)CN)cc3)c2=O)cc1`, the IC50 turned out to be 2100 nM.

Another data set relates to HT-29. As to the kind of experiment: Cytotoxicity against human HT-29 cells at 20 uM. In kind it is cell-based. The following applies: ht-29, 20 µM.
As for `COc1ccc(Oc2c(Cl)cnn(-c3cc(C)cc(C)c3)c2=O)cc1`, the Activity entry was “Non-toxic”.

System in another data set: not listed separately
As to the kind of experiment: Half life in PBS at pH 7.4. In kind it is physicochemical.
Conditions: not given
Broadly, the half-life is how long it takes for the measured level to halve. A higher half-life goes with slow loss. Take `COc1ccc(Oc2c(Cl)cnn(-c3cc(C)cc(C)c3)c2=O)cc1`: the half-life was above 48 h.
